Data published in patent US9481688B2, “(Thieno[2,3-b][1,5]benzoxazepin-4-yl)piperazin-1-yl compounds as dual activity H1 inverse agonists/5-HT2A antagonists” (Eli Lilly and Company, priority 2011, dated 2016).
pIC50, pKi: −log10 of the molar value. Structures can show the parent of a compound that is named as a salt.

Assays:
Adrenergic alpha1B = Adrenergic alpha1B (Homo sapiens (Human), UniProt P35368); test: Adrenergic alpha1B binding
Text: (§1) Further, the compounds of the invention may be tested in binding assays and functional activity assays by well known methods for other physiologically important receptors such as, but not limited to, the hERG channel, other serotonin receptors (specifically 5-HT1B, 5-HT1D, receptors, lack of agonist activity at 5-HT2B receptors, 5-HT2C, 5-HT5, 5-HT6, and 5-HT7 receptors), dopaminergic receptors (specifically D1, D2, and D3), GABAA receptors, adrenergic receptors and monoamine transporters.

native GABAA receptors = test: GABAA antagonism using native receptors in primary neuronal cultures (FLIPR calcium flux); type: cell-based, rat; conditions: against 10 μM GABA
Description: Activity of compounds on native GABAA receptors is evaluated by monitoring calcium fluxes using a 96 well format FLIPR® system (Fluorometric Imaging Plate Reader (FLIPR®, Molecular Devices). Briefly, cortical embryonic neurons are dissociated from E18 rat embryos and plated at optimum density into black-walled, transparent bottom poly-D-lysine coated 96-well FLIPR® plates. After loading the cells with a calcium sensitive dye (Fluo4-AM, Molecular Devices), the cells are bathed in a solution containing low chloride (chloride replaced by gluconate). Under these conditions activation of GABAA receptors causes an efflux of chloride ions (in the direction of the chemical gradient), which results in membrane depolarization and consequently activation of voltage gated calcium channels (VGCCs). Calcium influx through VGCCs is recorded and analysed offline using the FLIPR® system. For a pharmacological validation of the assay, concentration response curves (CRC) are recorded for the standard agonist (GABA) and standard antagonist (Gabazine). […]
The antagonist effects of compounds are quantified using 10-point dose response curves by comparing the peak fluorescent responses to the agonist GABA in the presence and absence of compound. […] Antagonist effects are calculated as a percent of the assay window. […]

[1] = molecular target: T1, human recombinant H1 receptor (Homo sapiens (Human), UniProt P35367); test: H1 competition binding assay ([3H]-Pyrilamine, SPA); conditions: dihydrochloride
Description: [^3H]-Pyrilamine binding experiments are carried out in SPA (scintillation proximity assay) 96-well format. Membranes used in this assay are prepared from HEK-293 cells stably expressing recombinant H1 receptor (human). The incubation is initiated by the addition of a mixture of WGA PVT SPA beads (1 mg/well, Perkin Elmer (MA, USA) RPNQ0001) and 3 μg membranes to assay buffer (67 mM Tris; pH 7.6) containing 3.5 nM [^3H]-Pyrilamine and varying concentrations of the test compound (10 point concentration response curves). Non-specific binding is determined in the presence of 10 μM Triprolidine. Samples are incubated for 4 hr. at room temperature (22° C.) and then read in a Microbeta Trilux.
Curves are evaluated using a 4-parameter logistic nonlinear equation to obtain the concentration of competitor causing 50% inhibition of radioligand binding (IC50). Equilibrium dissociation constants (Ki) are calculated according to the equation Ki=IC50/(1+L/Kd), where L equals the concentration of radioligand used in the experiment and Kd equals the equilibrium dissociation constant of the radioligand for the receptor, determined from standard saturation analysis or homologous competition experiments. Reported values for Ki, where n values are indicated, are shown as geometric mean±the standard error of the mean (SEM), with the number of replicate determinations indicated by n. […]

5-HT1B = 5-HT1B (Homo sapiens (Human), UniProt P28222); test: 5-HT1B binding
Text: as §1

5-HT7 = 5-HT7 (Homo sapiens (Human), UniProt P34969); test: 5-HT7 binding
Text: as §1

5-HT2B = 5-HT2B (Homo sapiens (Human), UniProt P41595); test: 5-HT2B binding
Text: as §1

Adrenergic alpha2C = Adrenergic alpha2C (Homo sapiens (Human), UniProt P18825); test: Adrenergic alpha2C binding
Text: as §1

[2] = molecular target: T1, human recombinant H1 receptor; test: H1 inverse agonism (IP1 accumulation in HEK293/hm H1 cells); type: cell-based; conditions: n=2
5-HT2A receptor = 5-HT2A receptor (Mus musculus (Mouse), UniProt P35363); test: Inhibition of DOI induced headshake activity; type: in vivo; conditions: 10 mg/kg PO, mice, 60 min. pre-treatment, read-out: inhibition of DOI induced headshake response
Text: J Neurosci Methods. […] Recording Environment. […] Relative humidity averages approximately 50%. […] Study Design and Dosing. […] Data Collection. […] Statistical Analysis.

T1 sequence (P35367 whole entry): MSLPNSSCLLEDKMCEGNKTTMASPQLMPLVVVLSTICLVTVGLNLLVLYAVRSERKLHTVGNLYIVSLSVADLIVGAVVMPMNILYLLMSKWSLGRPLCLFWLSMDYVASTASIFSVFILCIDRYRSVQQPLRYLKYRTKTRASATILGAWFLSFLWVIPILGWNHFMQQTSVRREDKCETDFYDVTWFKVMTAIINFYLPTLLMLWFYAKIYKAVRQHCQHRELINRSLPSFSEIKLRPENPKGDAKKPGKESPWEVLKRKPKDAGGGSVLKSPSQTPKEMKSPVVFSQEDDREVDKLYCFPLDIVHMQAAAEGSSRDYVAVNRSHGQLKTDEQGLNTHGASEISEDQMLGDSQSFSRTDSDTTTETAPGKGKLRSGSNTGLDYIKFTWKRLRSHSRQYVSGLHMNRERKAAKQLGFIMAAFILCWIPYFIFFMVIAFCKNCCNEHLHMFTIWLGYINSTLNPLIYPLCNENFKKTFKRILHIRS
Adrenergic alpha1B, sequence (P35368 whole entry): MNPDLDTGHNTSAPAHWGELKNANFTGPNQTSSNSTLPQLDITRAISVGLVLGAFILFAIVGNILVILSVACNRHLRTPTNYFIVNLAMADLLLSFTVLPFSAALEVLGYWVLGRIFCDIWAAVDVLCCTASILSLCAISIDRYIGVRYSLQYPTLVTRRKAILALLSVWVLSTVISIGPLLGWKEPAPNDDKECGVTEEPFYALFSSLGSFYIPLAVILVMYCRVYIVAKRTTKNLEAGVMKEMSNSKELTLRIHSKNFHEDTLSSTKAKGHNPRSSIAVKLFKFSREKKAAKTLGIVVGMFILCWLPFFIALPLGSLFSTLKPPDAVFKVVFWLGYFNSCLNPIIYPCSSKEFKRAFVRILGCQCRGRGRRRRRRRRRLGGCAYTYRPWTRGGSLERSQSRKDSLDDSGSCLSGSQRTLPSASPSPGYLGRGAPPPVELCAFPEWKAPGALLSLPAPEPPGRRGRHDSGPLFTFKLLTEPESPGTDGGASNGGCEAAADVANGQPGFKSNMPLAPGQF
5-HT7, sequence (P34969 whole entry, species assumed): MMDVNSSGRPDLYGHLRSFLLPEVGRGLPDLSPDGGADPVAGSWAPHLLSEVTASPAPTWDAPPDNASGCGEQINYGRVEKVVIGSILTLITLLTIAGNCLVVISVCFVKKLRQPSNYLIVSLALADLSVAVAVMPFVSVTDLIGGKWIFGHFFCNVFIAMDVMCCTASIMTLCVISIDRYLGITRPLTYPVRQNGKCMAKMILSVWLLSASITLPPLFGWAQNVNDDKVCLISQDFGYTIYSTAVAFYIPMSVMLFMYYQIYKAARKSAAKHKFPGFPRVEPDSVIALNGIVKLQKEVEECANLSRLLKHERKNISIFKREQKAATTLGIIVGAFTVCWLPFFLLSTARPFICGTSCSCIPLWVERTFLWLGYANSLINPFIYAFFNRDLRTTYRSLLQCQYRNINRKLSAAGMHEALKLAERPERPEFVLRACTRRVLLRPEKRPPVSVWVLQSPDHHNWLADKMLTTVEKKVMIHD
5-HT1B, sequence (P28222 whole entry, species assumed): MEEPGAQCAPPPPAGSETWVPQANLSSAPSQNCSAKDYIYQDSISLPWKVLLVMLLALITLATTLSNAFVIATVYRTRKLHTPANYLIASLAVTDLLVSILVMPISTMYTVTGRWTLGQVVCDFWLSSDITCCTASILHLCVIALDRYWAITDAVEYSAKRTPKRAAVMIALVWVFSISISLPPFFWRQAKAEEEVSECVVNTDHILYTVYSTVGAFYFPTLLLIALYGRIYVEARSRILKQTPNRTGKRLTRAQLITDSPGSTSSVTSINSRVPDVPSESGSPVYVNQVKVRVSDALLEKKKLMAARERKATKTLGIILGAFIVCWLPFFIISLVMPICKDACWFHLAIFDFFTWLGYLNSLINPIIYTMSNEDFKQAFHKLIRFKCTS
5-HT2B, sequence (P41595 whole entry, species assumed): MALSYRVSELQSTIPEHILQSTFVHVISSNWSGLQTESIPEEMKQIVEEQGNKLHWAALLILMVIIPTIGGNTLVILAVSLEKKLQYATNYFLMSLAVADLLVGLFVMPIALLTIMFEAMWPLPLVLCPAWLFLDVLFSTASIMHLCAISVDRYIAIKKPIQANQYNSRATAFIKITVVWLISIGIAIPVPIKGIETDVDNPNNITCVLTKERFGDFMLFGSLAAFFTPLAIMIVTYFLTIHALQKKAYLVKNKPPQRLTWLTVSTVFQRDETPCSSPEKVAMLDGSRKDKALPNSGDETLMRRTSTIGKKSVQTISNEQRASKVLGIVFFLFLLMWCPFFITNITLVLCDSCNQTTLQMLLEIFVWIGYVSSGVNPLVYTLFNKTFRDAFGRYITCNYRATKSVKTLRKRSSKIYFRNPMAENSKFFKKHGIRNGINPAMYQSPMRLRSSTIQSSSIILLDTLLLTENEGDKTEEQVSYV
Adrenergic alpha2C, sequence (P18825 whole entry): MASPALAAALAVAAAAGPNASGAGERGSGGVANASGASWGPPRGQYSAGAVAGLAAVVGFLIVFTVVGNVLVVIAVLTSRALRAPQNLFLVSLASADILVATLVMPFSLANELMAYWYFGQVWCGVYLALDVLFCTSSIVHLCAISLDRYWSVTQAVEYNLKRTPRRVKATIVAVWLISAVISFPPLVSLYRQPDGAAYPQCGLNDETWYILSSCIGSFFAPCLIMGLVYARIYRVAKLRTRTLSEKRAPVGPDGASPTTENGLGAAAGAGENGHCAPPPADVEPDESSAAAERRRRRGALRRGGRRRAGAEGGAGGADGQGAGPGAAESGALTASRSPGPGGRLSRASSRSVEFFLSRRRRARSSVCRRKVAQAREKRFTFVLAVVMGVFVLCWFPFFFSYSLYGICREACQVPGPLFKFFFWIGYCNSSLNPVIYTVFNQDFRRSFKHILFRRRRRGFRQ

Compound Cc1ccc2c(c1)Oc1sc(Cl)cc1C(N1CCN(CC(C)(C)C(=O)O)CC1)=N2 [Example 3, 3-[4-(2-chloro-8-methyl-thieno[2,3-b][1,5]benzoxazepin-4-yl)piperazin-1-yl]-2,2-dimethyl-propanoic acid dihydrochloride] has a pKi (Adrenergic alpha1B) of less than 4.83, a pIC50 (native GABAA receptors) of less than 4.00 and a pKi [1] of 7.23. For the same compound, the pKi (5-HT1B) was less than 5.25, the pKi (5-HT7) was less than 5.69 and the pKi (5-HT2B) was 6.92. For the same compound, the pKi (Adrenergic alpha2C) was less than 5.37, the “suppression of constitutive activity (IP1), relative to Tripelennamine” value ([2]; at 1 μM) was 105% and the “suppression of constitutive activity (IP1), relative to Tripelennamine” value ([2]; at 10 μM) was 85%. It also gave an inhibition at 10 mg/kg (5-HT2A receptor) of 100%.
